Patent US8680052B1, “Methods of treating, reducing the incidence of, and/or preventing ischemic events” (The Medicines Company, priority 2013, dated 2014)
Where two headings read alike, the source gives them in different places.

Tested on: patients with acute coronary syndromes undergoing PCI
Details: 30 days; for All-cause mortality OR (95% CI) / IDR OR (95% CI) / MI OR (95% CI) / Mortality/MI/IDR OR (95% CI) / Mortality/Q-wave MI/IDR OR (95% CI) / Mortality/Q-wave MI/Stent thrombosis OR (95% CI) / Stent thrombosis OR (95% CI) / Q-wave MI OR (95% CI): Cangrelor vs Clopidogrel

## CSCCNc1nc(SCCC(F)(F)F)nc2c1ncn2[C@@H]1O[C@H](COP(=O)(O)OP(=O)(O)C(Cl)(Cl)P(=O)(O)O)[C@@H](O)[C@H]1O [Cangrelor, cangrelor]
ITT
  Stent thrombosis: 27 (0.6) no. (%)
  All-cause mortality OR (95% CI): 0.852 (0.558, 1.301)
  IDR OR (95% CI): 0.899 (0.637, 1.271)
  MI OR (95% CI): 1.095 (0.929, 1.291)
  Mortality/MI/IDR OR (95% CI): 1.026 (0.884, 1.192)
  Mortality/Q-wave MI/IDR OR (95% CI): 0.856 (0.655, 1.119)
  Mortality/Q-wave MI/Stent thrombosis OR (95% CI): 0.829 (0.599, 1.146)
  Q-wave MI OR (95% CI): 0.601 (0.263, 1.374)
  Stent thrombosis OR (95% CI): 0.902 (0.535, 1.519)
ITT With STEMI
  All-cause mortality: 8 (1.7) no. (%)
  IDR: 16 (3.4) no. (%)
  MI: 20 (4.2) no. (%)
  Mortality/MI/IDR: 36 (7.6) no. (%)
  Mortality/Q-wave MI/IDR: 23 (4.9) no. (%)
  Mortality/Q-wave MI/Stent thrombosis: 14 (3.0) no. (%)
  Q-wave MI: 2 (0.4) no. (%)
  Stent thrombosis: 7 (1.5) no. (%)
  All-cause mortality OR (95% CI): 0.524 (0.222, 1.235)
  IDR OR (95% CI): 1.139 (0.557, 2.331)
  MI OR (95% CI): 1.263 (0.653, 2.441)
  Mortality/MI/IDR OR (95% CI): 0.929 (0.582, 1.480)
  Mortality/Q-wave MI/IDR OR (95% CI): 0.778 (0.447, 1.355)
  Mortality/Q-wave MI/Stent thrombosis OR (95% CI): 0.560 (0.289, 1.085)
  Stent thrombosis OR (95% CI): 0.741 (0.280, 1.962)
ITT Without STEMI
  All-cause mortality: 32 (0.8) no. (%)
  IDR: 46 (1.2) no. (%)
  MI: 298 (7.6) no. (%)
  Mortality/MI/IDR: 345 (8.8) no. (%)
  Mortality/Q-wave MI/IDR: 79 (2.0) no. (%)
  Mortality/Q-wave MI/Stent thrombosis: 54 (1.4) no. (%)
  Q-wave MI: 7 (0.2) no. (%)
  Stent thrombosis: 20 (0.5) no. (%)
  All-cause mortality OR (95% CI): 1.027 (0.626, 1.687)
  IDR OR (95% CI): 0.846 (0.569, 1.257)
  MI OR (95% CI): 1.081 (0.912, 1.281)
  Mortality/MI/IDR OR (95% CI): 1.037 (0.886, 1.215)
  Mortality/Q-wave MI/IDR OR (95% CI): 0.891 (0.656, 1.211)
  Mortality/Q-wave MI/Stent thrombosis OR (95% CI): 0.959 (0.658, 1.397)
  Q-wave MI OR (95% CI): 0.463 (0.189, 1.138)
  Stent thrombosis OR (95% CI): 0.995 (0.535, 1.852)
MITT
  All-cause mortality: 40 (0.9) no. (%)
  IDR: 60 (1.4) no. (%)
  MI: 315 (7.3) no. (%)
  Mortality/MI/IDR: 376 (8.7) no. (%)
  Mortality/Q-wave MI/IDR: 100 (2.3) no. (%)
  Mortality/Q-wave MI/Stent thrombosis: 68 (1.6) no. (%)
  Q-wave MI: 9 (0.2) no. (%)
  Stent thrombosis: 27 (0.6) no. (%)
MITT With STEMI
  All-cause mortality: 8 (1.8) no. (%)
  IDR: 16 (3.7) no. (%)
  MI: 18 (4.1) no. (%)
  Mortality/MI/IDR: 34 (7.8) no. (%)
  Mortality/Q-wave MI/IDR: 23 (5.3) no. (%)
  Mortality/Q-wave MI/Stent thrombosis: 14 (3.2) no. (%)
  Q-wave MI: 2 (0.5) no. (%)
  Stent thrombosis: 7 (1.6) no. (%)
  All-cause mortality OR (95% CI): 0.732 (0.292, 1.838)
  IDR OR (95% CI): 1.165 (0.561, 2.416)
  MI OR (95% CI): 1.146 (0.577, 2.278)
  Mortality/MI/IDR OR (95% CI): 1.015 (0.619, 1.665)
  Mortality/Q-wave MI/IDR OR (95% CI): 0.929 (0.519, 1.663)
  Mortality/Q-wave MI/Stent thrombosis OR (95% CI): 0.665 (0.334, 1.325)
  Stent thrombosis OR (95% CI): 0.705 (0.266, 1.869)
MITT Without STEMI
  All-cause mortality: 32 (0.8) no. (%)
  IDR: 44 (1.1) no. (%)
  MI: 297 (7.7) no. (%)
  Mortality/MI/IDR: 342 (8.9) no. (%)
  Mortality/Q-wave MI/IDR: 77 (2.0) no. (%)
  Mortality/Q-wave MI/Stent thrombosis: 54 (1.4) no. (%)
